What was measured:
[1] = system: glutamate in the hippocampus; conditions: in vivo; cited from earlier work
carbonic anhydrase = conditions: cited from earlier work
[2] = system: aminohydroxymethylisoxazole propionic acid (AMPA) glutamate receptor subtype site; conditions: rat hippocampal pyramidal neurones; effect at AMPA site; cited from earlier work
[3] = system: voltage-gated sodium electrogenesis; conditions: specific action on voltage-gated sodium electrogenesis in certain areas of the nervous system; cited from earlier work
[4] = system: N-methyl-D-aspartate (NMDA) mediated glutamate receptor subtype site; conditions: cited from earlier work
[5] = system: obstructive sleep apnoea (OSA); assay: Double-blind, placebo controlled cross-over study of topiramate in patients with light to moderate OSA; type: in vivo
Description: A double-blind, placebo controlled cross-over study of topiramate was undertaken in 2 patients with light to moderate OSA (A/H index, 22 and 35 on previous screening). Topiramate (100 mg b.i.d or corresponding placebo) was administered for 10 days in each cross-over period. A wash-out period of one week was applied between the two treatment periods.

SMILES: CC1(C)O[C@@H]2[C@@H](CO[C@@]3(COS(N)(=O)=O)OC(C)(C)O[C@@H]23)O1 [topiramate, 2,3:4,5-di-o-isopropylidene-β-D-fructopyranose sulfamate]
- Abnormally high concentrations of glutamate in the hippocampus [1]: reduce
- Inhibition of the enzyme carbonic anhydrase (carbonic anhydrase): weakly inhibit
- Kainate-elicited excitatory response [2]: blocked
- Cellular activity / cellular bursting activity [3]: dose-dependently reduce cellular activity
- Effect at the NMDA mediated glutamate receptor subtype site [4]: had no effect
- Blood pressure ([5]; between the two study nights (topiramate vs placebo)): did not differ
- Side effects ([5]; during the study period): No side effects were reported
- A/H index during topiramate ([5]; first patient (placebo 24), 100 mg b.i.d for 10 days): 9
- A/H index during topiramate ([5]; second patient (placebo 33), 100 mg b.i.d for 10 days): 6
- Daytime sleepiness ([5]; spontaneous reporting by both patients, 100 mg b.i.d for 10 days): markedly reduced
